The source made the active and inactive calls. No rule for the calls is given here.

The assay has as its system counterscreen cell line, fluorescence, non-specific activators. The assay can be described thus: nonselective activators, counterscreen cells – cell-based, fluorescence, late stage, counter-screen for GalR3 antagonist project, dose response (AID 743092). Background: Counterscreens check selectivity or assay interference.
For orientation: IC50 means the concentration at which inhibition is half-maximal. Consider `CCCCc1ccc(NC(=O)c2ccc(N(C)S(C)(=O)=O)cc2)cc1`, for which the IC50 was > 29.9 µM (inactive).

In the case of `CC(C)(C)c1ccc(-n2ncc3c2CCCC3NC(=O)C2(C(N)=O)CC2)cc1` (configuration not stated), the IC50 is > 29.9 µM (inactive).

Consider `O=C(CSc1nnnn1C1CC2CCC1C2)Nc1ccnc2ccccc12` (configuration not stated), for which the IC50 was > 29.9 µM (inactive).

Take `COc1ccc(C(=O)CSc2nnc(Cn3cnc4ccccc43)o2)cc1`: the IC50 is > 29.9 µM (inactive).

In the case of `CCCOc1ccc(CSc2nc3ccccc3[nH]2)cc1`, the IC50 is > 29.9 µM (inactive).

On to `S=C(NCCc1ccccc1)Nc1cccc2cnccc12`, for which the IC50 is > 29.9 µM (inactive).

For `Cc1ccccc1-c1cc(C(=O)Nc2sc(C(=O)OC(C)C)c(C)c2C#N)c2ccccc2n1`, the IC50 was > 29.9 µM (inactive).

In the case of `Cc1nn(C)c(Cl)c1NC(=O)OCc1ccc(Cl)cc1Cl`, the IC50 is > 29.9 µM (inactive).

Turning to `COc1cc(CSc2nnnn2-c2ccc(C)cc2)cc(OC)c1OC`, the IC50 is > 29.9 µM (inactive).

For `Fc1ccc(NC(=S)N2CCCN(c3ccc(C(F)(F)F)cn3)CC2)c(F)c1`, the IC50 was > 29.9 µM (inactive).

Turning to `Cc1nc2ccccc2n1Cc1ccc(Cl)cc1`, the IC50 is > 29.9 µM (inactive).

For `COc1ccc(CCNc2ncnc3sccc23)cc1OC`, the IC50 was > 29.9 µM (inactive).

With `Nc1nonc1-n1nnc(C(=O)N/N=C/c2cc(Br)ccc2O)c1CSC1=NCCS1`, the IC50 is > 29.9 µM (inactive).

As to `CC1CC(=O)NN=C1c1ccc(N)c([N+](=O)[O-])c1` (configuration not stated), the IC50 was > 29.9 µM (inactive).

As for `CCOC(=O)Cc1csc(NC(=O)c2cc(=O)c3ccccc3o2)n1`, the IC50 is > 29.9 µM (inactive).

With `CCCOC(=O)c1ccc(OCC(O)Cn2c(C)nc3ccccc32)cc1` (configuration not stated), the IC50 was > 29.9 µM (inactive).

For the compound `O=C(CSc1nnc(Cn2nnc3ccccc32)o1)N(Cc1ccc(F)cc1)c1ccccc1`, the IC50 is > 29.9 µM (inactive).

For the compound `Cc1cc(CSc2ccccc2)ccc1NC(=O)c1ccc(CN2CCOCC2)cc1`, the IC50 is > 29.9 µM (inactive).

On to `COc1ccc(CN2CCC(C(=O)Nc3ccc(Oc4ccccc4)nc3)CC2)cc1F`, for which the IC50 is > 29.9 µM (inactive).

With `NC(=O)c1c(-c2ccc(Cl)cc2Cl)csc1NC(=O)Cc1ccccc1`, the IC50 is > 29.9 µM (inactive).

Regarding `N#Cc1cc(-c2ccccc2)oc1NC(=O)c1ccco1`, the IC50 is > 29.9 µM (inactive).

As for `Cc1ccc(Oc2ccc(OCC(=O)Nc3ccncc3)cc2)cc1`, the IC50 was > 29.9 µM (inactive).

On to `Cc1ccccc1Cn1c(C)nc2ccccc21`, for which the IC50 is > 29.9 µM (inactive).

As for `NC(=O)c1nnn(Cc2cc(Cl)c(C(=O)c3ccc(Cl)cc3)c(Cl)c2)c1N`, the IC50 was > 29.9 µM (inactive).

As for `O=C(COc1ccc(C(=O)c2ccccc2)cc1)Nc1cccnc1`, the IC50 is > 29.9 µM (inactive).

Turning to `Cn1nc(C(C)(C)C)cc1C(=O)NCc1ccc(N2CCCC2=O)cc1`, the IC50 was > 29.9 µM (inactive).

Take `CNc1ccccc1C(C)(C)c1cc(-c2ccc(F)cc2)no1`: the IC50 was 19.6 µM (inactive).

Regarding `Cc1nn(C)c(C)c1CN(C)S(=O)(=O)c1ccc2ccccc2c1`, the IC50 was > 29.9 µM (inactive).

`COc1ccc(-n2c(C)cc(C(=O)COC(=O)Cn3cnc4ccccc43)c2C)cc1`: the IC50 is > 29.9 µM (inactive).

With `COc1cc2c(cc1OC)[C@@H]1C(=O)c3ccc4c(c3O[C@@H]1CO2)C[C@H](C(C)C)O4`, the IC50 was > 29.9 µM (inactive).

For `CC(=O)c1c(C)[nH]c(C(=O)COc2cc(C)ccc2C(C)C)c1C`, the IC50 was > 29.9 µM (inactive).

Regarding `Nc1cc(-c2ccc(Br)cc2)nn1Cc1ccccc1`, the IC50 is > 29.9 µM (inactive).

Turning to `CC(C)(C)NC(=O)COC(=O)c1snc(C(=O)NC2CCCCC2)c1N`, the IC50 was > 29.9 µM (inactive).

Take `O=C(Cc1ccc(Cl)cc1Cl)Nc1ccncc1Cl`: the IC50 was > 29.9 µM (inactive).

As to `Cc1nn(C)c(Nc2ccc(Br)cc2)c1Br`, the IC50 was > 29.9 µM (inactive).

As for `CCOc1nc(C#N)nc(N2CCCCC2)n1`, the IC50 was > 29.9 µM (inactive).

With `CC(=O)c1cn(CC(=O)NCCc2c[nH]c3ccccc23)c2ccccc12`, the IC50 was > 29.9 µM (inactive).

On to `CC1(C)CC2CC(C)(CN2S(=O)(=O)c2ccc(C(=O)Nc3cccc(S(=O)(=O)N4CCOCC4)c3)cc2)C1` (configuration not stated), for which the IC50 was > 29.9 µM (inactive).

On to `CSc1ccc(C(=O)C2CCCN(C(=O)CCc3c(C)nn(C)c3C)C2)cc1` (configuration not stated), for which the IC50 is > 29.9 µM (inactive).

As for `Cc1cccc(Cl)c1NC(=O)N1CCCN(c2nc3ccc(Cl)cc3s2)CC1`, the IC50 was > 29.9 µM (inactive).

`Cc1[nH]c(=O)c(C#N)cc1-c1ccccc1`: the IC50 is > 29.9 µM (inactive).

Turning to `COc1ccc(CN(C)c2ccc(S(=O)(=O)N3CCN(C)CC3)cc2[N+](=O)[O-])cc1OC`, the IC50 is > 29.9 µM (inactive).

For the compound `Cc1oc(-c2ccc(Cl)cc2)nc1CSCC(=O)NC1CCN(Cc2ccccc2)CC1`, the IC50 was 26.8 µM (inactive).

For the compound `CCN(CC)S(=O)(=O)c1cc(NC(=O)CNc2cccc(S(=O)(=O)N3CCOCC3)c2)ccc1C`, the IC50 was > 29.9 µM (inactive).

`CC(C)(C)c1ccc(C(=O)Nc2ccc(Oc3cccnc3)nc2)cc1`: the IC50 was > 29.9 µM (inactive).

Turning to `COc1ccc(NS(=O)(=O)c2ccc(NC(=O)c3ccc(CN4CCOCC4)cc3)cc2)cc1`, the IC50 was > 29.9 µM (inactive).

For the compound `O=S(=O)(NCc1ccncc1)c1ccc(Br)s1`, the IC50 was > 29.9 µM (inactive).

Regarding `O=C(Nc1nc(-c2ccc(Cl)cc2Cl)cs1)c1ccc(OCC2CCCO2)cc1` (configuration not stated), the IC50 was > 29.9 µM (inactive).

Turning to `COc1ccc(OC)c(CCNC(=O)Cn2nc(C)c3c(C)n(-c4ccc(C)cc4)nc3c2=O)c1`, the IC50 is > 29.9 µM (inactive).

As for `COc1cccc2[nH]c3c(N4CCC(C)CC4)ncnc3c12`, the IC50 is > 29.9 µM (inactive).

For `CC(C)(C)CN1CCN(Cc2nc(-c3ccc(F)cc3)cs2)CC1CCO` (configuration not stated), the IC50 was > 29.9 µM (inactive).

For `CCOC(=O)c1[nH]c2ccc(OC)cc2c1NS(=O)(=O)c1ccc(Cl)s1`, the IC50 was > 29.9 µM (inactive).

With `Cc1cc(C(=O)CSc2nc(N)cc(=O)[nH]2)c(C)n1-c1ccc(OC(F)F)cc1`, the IC50 was > 29.9 µM (inactive).

Take `CCCCCn1c(=O)[nH]c2cc(C(=O)N3CCN(Cc4ccc5c(c4)OCO5)CC3)ccc2c1=O`: the IC50 is > 29.9 µM (inactive).

Turning to `Cc1cc(C)nc(SCC(=O)Nc2ccnc3ccccc23)n1`, the IC50 was > 29.9 µM (inactive).

Regarding `CC(=O)c1ccc(N2CCN(C(=S)Nc3ccc(Oc4ccccc4)cc3)CC2)cc1`, the IC50 is > 29.9 µM (inactive).

On to `CCOc1cc(S(=O)(=O)NCc2ccncc2)ccc1Cl`, for which the IC50 was > 29.9 µM (inactive).

Source of the values: PubChem BioAssay AID743092 (The Scripps Research Institute Molecular Screening Center, 2013).
